These are literature values, as cited in patent US20060159628A1, “Nanoparticulate benzothiophene formulations” (Elan Pharma International Limited, priority 2004, published 2006).

For one data set, the system named is MCF-7 cells. The note with it: cell culture.
In another data set the test system is uterine tissue. The following applies: ovariectomized (OVX) rats.

`Cl.O=C(c1ccc(OCCN2CCCCC2)cc1)c1c(-c2ccc(O)cc2)sc2cc(O)ccc12` [Raloxifene hydrochloride, methanone, [6-hydroxy-2-(4-hydroxyphenyl)benzo[b]thien-3-yl]-[4-[2-(1-piperidinyl)ethoxy]phenyl]-, hydrochloride]: the solubility in water entry is given as “very slightly soluble”. The “estrogen-dependent proliferation in MCF-7 cells” value in the data set with MCF-7 cells is on record as “inhibits estrogen-dependent proliferation”. The uterotrophic response entry in the data set on uterine tissue is “only minimal uterotrophic response”.
